The text below walks through data of patent US20260206757A1, “METHODS OF CONTROLLING UNDESIRABLE PLANTS WITH PPO HERBICIDES AND COMBINATIONS IN HERBICIDE TOLERANT CROP PLANTS” (BASF AGRO B.V., priority 2022, published 2026).

The subject of one series is HELAN w F(383)I. Description: Greenhouse experiment, crop safety of PPO inhibitor tolerant sunflower. Type of series: in vivo, Helianthus annuus. The note with it: scale 0 to 100%. The protocol:
(§1) For the post emergence treatment, the plants were first grown to the 2 to 4 leaf stage (GS 12/14). The plants were cultivated due to their individual requirements at 10-25° C. and 20-35° C. The plants were irrigated as required.
(§2) Here, the herbicidal compositions were suspended or emulsified in water as distribution medium and sprayed using finely distributing nozzles. 1% methylated seed oil (MSO) has been added as adjuvant to each of the solo and mixture treatments.
(§3) In the greenhouse experiments, the herbicidal activity for the individual herbicidal compositions (solo and mixture applications) was assessed 20/21 days after treatment (DAT).
(§4) The evaluation for the damage on undesired weeds caused by the chemical compositions was carried out using a scale from 0 to 100%, compared to the untreated control plants. Here, 0 means no damage and 100 means complete destruction of the plants.

In a further series the test system is sunflower. To be noted: applied to sunflower with at least two true leaves; cited from earlier work.
The next series has as its system HELAN Pacino. Description: Greenhouse experiment, crop safety of sunflower. Type of series: in vivo, Helianthus annuus. The note with it: scale 0 to 100%. The protocol:
as §1, §2, §3, §4

The test system of a further series is Portulaca oleracea. Description: Greenhouse experiment, post emergence herbicidal activity. Type of series: in vivo. The note with it: POROL, BBCH 12-14, Flumioxazin 4, Bifenox 168 g ai/ha. A digest of the protocol:
(§5)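 Post-emergence spray at 2–4 leaves (GS 12/14); growth at 10-25° C. or 20-35° C. per species; water carrier + 1% MSO, solo and mixtures; % damage vs untreated at 20/21 DAT.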

A further series concerns Solanum nigrum. The series is described as above. Type of series: in vivo. To be noted: SOLNI, BBCH 12-14, Flumioxazin 1, Fomesafen 123 g ai/ha. Put shortly:
as §5

A further series relates to Echinochloa crus-galli. Description: Field experiment, post-emergence herbicidal activity. Type of series: in vivo. To be noted: ECHCG, postemergence. How it is done: (§6) Trial Objective: Saflufenacil in tank mix with Pendimethalin efficacy on weeds and grasses in early post-emergence of the weeds
(§7) On field test sites, natural weed infestation was treated, pre-emergence of the weeds on bare soil or post-emergence of the weeds.
(§8) For the post emergence treatment, the weedy plants were treated between the 2-4 true leaf stage (GS12-14) and the 6 true leaf stage (GS 16). The herbicidal compositions were suspended or emulsified in water as distribution medium and sprayed with commercial flat fan nozzles using between 100 and 200 l/ha water.
(§9) In the following experiments, the herbicidal activity for the individual herbicidal compositions (solo and mixture applications) was assessed up to 36 days after treatment (DAT). The assessments for the damage on undesired weeds caused by the chemical compositions was carried out using a scale from 0 to 100%, compared to the untreated control plants. Here, 0 means no damage and 100 means complete destruction of the plants.
(§10) [formula] • where X=effect in percent using herbicide (A) at an application rate a; • Y=effect in percent using herbicide (B) at an application rate b; • E=expected effect (in %) of herbicide (A)+herbicide (B) at application rates a+b.
(§11) The value E corresponds to the effect (plant damage or injury) which is to be expected if the activity of the individual compounds is additive. If the observed effect is higher than the value E calculated according to the Colby equation, a synergistic effect is present.

For another series, the system named is Amaranthus retroflexus. The description is as above. Type of series: in vivo. The note with it: AMARE, postemergence. The protocol:
as §6, §7, §8, §9, §10, §11

A further series concerns Mercuralis annua. The description is as above. Type of series: in vivo. The note with it: MERAN, postemergence, Saflufenacil 12.5, Pendimethalin 1365 g ai/ha. The protocol: as §6, §7, §8, §9, §10, §11
Where [1] appears, read: BBCH 12-14, Flumioxazin 0.5, Bifenox 168 g ai/ha.
The mark [2] stands for this setting: BBCH 12-14, Flumioxazin 0.5, Halauxifen 1 g ai/ha.
Setting [3] is: Saflufenacil 12.5, Pendimethalin 1064 g ai/ha.

For the compound `C#CCN1C(=O)COc2cc(F)c(N3C(=O)C4=C(CCCC4)C3=O)cc21` [Flumioxazin, 2-[7-fluoro-3,4-dihydro-3-oxo-4-(2-propyn-1-yl)-2H-1,4-benzoxazin-6-yl]-4,5,6,7-tetrahydro-1H-isoindole-1,3 (2H)-dione], the “Observed crop damage 21 days after treatment” value worked out at 15% with HELAN w F(383)I (setting [1]), 15% in the series with HELAN w F(383)I (setting [2]), 65% with HELAN Pacino (setting [1]) and 65% in the series on HELAN Pacino (setting [2]). Besides, the crop injury result in the series with sunflower is reported as “without high level of crop injury”. Besides, the entries for the “% Herbicidal activity” value in the series with Portulaca oleracea and in the series on Solanum nigrum were 98% and 90%, respectively.

Turning to `CC(C)N(C)S(=O)(=O)NC(=O)c1cc(-n2c(=O)cc(C(F)(F)F)n(C)c2=O)c(F)cc1Cl` [Saflufenacil, 2-chloro-5-[3,6-dihydro-3-methyl-2,6-dioxo-4-(trifluoromethyl)-1-(2H)pyrimidinyl]-4-fluoro-N-[[methyl (1-methylethyl)amino]-sulfonyl]benzamide], the “% Herbicidal activity” value in the series on Echinochloa crus-galli (setting [3]) is recorded as 0%; with Echinochloa crus-galli (Saflufenacil 12.5, Pendimethalin 1365 g ai/ha) it was 5%; in the series with Echinochloa crus-galli (Saflufenacil 50, Pendimethalin 1064 g ai/ha), 0%; in the series on Amaranthus retroflexus (Saflufenacil 12.5, Pendimethalin 840 g ai/ha) it was 35%; in the series with Amaranthus retroflexus (setting [3]), 60%; with Mercuralis annua, 0%.
